In US10202378B2, “Therapeutic compounds and uses thereof” (GENENTECH, INC., priority 2015, dated 2019) one finds IC50 data, which are given here for 20 compounds.

As usually defined, the IC50 is the concentration needed to halve the response being measured.

The target in one experiment is TAF1-BD2 (Homo sapiens, UniProt P21675). Briefly: TAF1-BD2 TR-FRET Binding Assay. The following applies: read-out: TAF1-BD2 HTRF IC50.
The target of a further experiment is TAF1-BD1 (Homo sapiens, UniProt P21675). Briefly: TAF1-BD1 TR-FRET Binding Assay. Conditions: read-out: TAF1-BD1 HTRF IC50. (In general: TR-FRET usually uses a lanthanide donor and a delayed reading to cut background.)

As for `CC(=O)c1c(C)[nH]c2c(=O)n(C)cc(C#CC(C)(C)O)c12` [Example 199a, 3-acetyl-4-(3-hydroxy-3-methyl-but-1-ynyl)-2,6-dimethyl-1H-pyrrolo[2,3-c]pyridin-7-one], the IC50 amounted to 130 nM at TAF1-BD2 and 1300 nM on TAF1-BD1.

Take `CCOC(=O)c1c(C)[nH]c2c(=O)n(C)cc(C#CC(O)(c3cccc(CO)c3)C(F)(F)F)c12` (stereo not shown) [Example 43, ethyl 2,6-dimethyl-7-oxo-4-[4,4,4-trifluoro-3-hydroxy-3-[3-(hydroxymethyl)phenyl]but-1-ynyl]-1H-pyrrolo[2,3-c]pyridine-3-carboxylate]: the IC50 was 35.5 nM on TAF1-BD2 and 257 nM on TAF1-BD1.

For the compound `CCOC(=O)c1c(C)[nH]c2c(=O)n(C)cc(C#CC(O)(c3ccccc3)C(F)F)c12` (single isomer, unassigned) [Example 93b, ethyl 4-(4,4-difluoro-3-hydroxy-3-phenyl-but-1-ynyl)-2,6-dimethyl-7-oxo-1H-pyrrolo[2,3-c]pyridine-3-carboxylate], the IC50 on TAF1-BD2 is 21.4 nM; at TAF1-BD1, 176 nM.

For `CCOC(=O)c1c(C)[nH]c2c(=O)n(C)cc(C#Cc3ccsc3)c12` [Example 62, ethyl 2,6-dimethyl-7-oxo-4-[2-(3-thienyl)ethynyl]-1H-pyrrolo[2,3-c]pyridine-3-carboxylate], the IC50 was 57.9 nM on TAF1-BD2 and 402 nM on TAF1-BD1.

For the compound `CCOC(=O)c1c(C)[nH]c2c(=O)n(C)cc(C#CC3(O)CCc4cccnc43)c12` (single isomer, unassigned) [Example 99b, ethyl 4-[2-(7-hydroxy-5,6-dihydrocyclopenta[b]pyridin-7-yl)ethynyl]-2,6-dimethyl-7-oxo-1H-pyrrolo[2,3-c]pyridine-3-carboxylate], the IC50 came out at 84.4 nM at TAF1-BD2 and 881 nM on TAF1-BD1.

Turning to `CCOC(=O)c1c(C)[nH]c2c(=O)n(C)cc(C#CC(O)(c3cccc(-c4ccccc4C)c3)C(F)(F)F)c12` (stereo not shown) [Example 102, ethyl 2,6-dimethyl-7-oxo-4-[4,4,4-trifluoro-3-hydroxy-3-[3-(o-tolyl)phenyl]but-1-ynyl]-1H-pyrrolo[2,3-c]pyridine-3-carboxylate], the IC50 was found to be 912 nM at TAF1-BD2 and 7510 nM on TAF1-BD1.

Consider `CCOC(=O)c1c(C)[nH]c2c(=O)n(C)cc(C#CC(C)(O)c3cccnc3)c12` (stereo not shown) [Example 28, ethyl 4-[3-hydroxy-3-(3-pyridyl)but-1-ynyl]-2,6-dimethyl-7-oxo-1H-pyrrolo[2,3-c]pyridine-3-carboxylate], for which the results for the IC50 on TAF1-BD2 and at TAF1-BD1 were 52.5 nM and 234 nM, respectively.

As for `CC(=O)NCc1nnc(-c2c(C)[nH]c3c(=O)n(C)cc(C#CC(O)(c4ccccc4)C(F)(F)F)c23)o1` (stereo not shown) [Example 173, N-[[5-[2,6-dimethyl-7-oxo-4-(4,4,4-trifluoro-3-hydroxy-3-phenyl-but-1-ynyl)-1H-pyrrolo[2,3-c]pyridin-3-yl]-1,3,4-oxadiazol-2-yl]methyl]acetamide], the half-maximal inhibitory concentration (IC50) at TAF1-BD2 is 117 nM; on TAF1-BD1 it was 490 nM.

In the case of `CCOC(=O)c1c(C)[nH]c2c(=O)n(C)cc(C#CC(O)(c3cccc(N4CCOCC4)c3)C(F)(F)F)c12` (stereo not shown) [Example 208, ethyl 2,6-dimethyl-7-oxo-4-[4,4,4-trifluoro-3-hydroxy-3-(3-morpholinophenyl)but-1-ynyl]-1H-pyrrolo[2,3-c]pyridine-3-carboxylate], the IC50 worked out at 79.5 nM on TAF1-BD2 and 438 nM on TAF1-BD1.

For the compound `Cc1[nH]c2c(=O)n(C)cc(C#CC(O)(c3ccccc3)C(F)(F)F)c2c1C(=O)OCCC#N` (stereo not shown) [Example 166, 2-cyanoethyl 2,6-dimethyl-7-oxo-4-(4,4,4-trifluoro-3-hydroxy-3-phenyl-but-1-ynyl)-1H-pyrrolo[2,3-c]pyridine-3-carboxylate], the IC50 at TAF1-BD2 stood at 31.2 nM; at TAF1-BD1, 214 nM.

Consider `CCOC(=O)c1c(C)[nH]c2c(=O)n(C)cc(C#CC3CCCCC3)c12` [Example 79, ethyl 4-(2-cyclohexylethynyl)-2,6-dimethyl-7-oxo-1H-pyrrolo[2,3-c]pyridine-3-carboxylate], for which the IC50 on TAF1-BD2 is 584 nM; at TAF1-BD1, 1330 nM.

For the compound `CCOC(=O)c1c(C)[nH]c2c(=O)n(C)cc(C#C[C@@](C)(O)c3ncccn3)c12` [Example 6, ethyl 4-[(3R)-3-hydroxy-3-pyrimidin-2-yl-but-1-ynyl]-2,6-dimethyl-7-oxo-1H-pyrrolo[2,3-c]pyridine-3-carboxylate], the IC50 at TAF1-BD2 came out at 147 nM; at TAF1-BD1, 989 nM.

Turning to `CCOC(=O)c1c(C)[nH]c2c(=O)n(C)cc(C#CC(C)(C)OCc3ccccc3)c12` [Example 25, ethyl 4-(3-benzyloxy-3-methyl-but-1-ynyl)-2,6-dimethyl-7-oxo-1H-pyrrolo[2,3-c]pyridine-3-carboxylate], the IC50 at TAF1-BD2 is 373 nM; at TAF1-BD1 it was 848 nM.

Regarding `CCOC(=O)c1c(C)[nH]c2c(=O)n(C)cc(C#Cc3cccc(N)c3)c12` [Example 60, ethyl 4-[2-(3-aminophenyl)ethynyl]-2,6-dimethyl-7-oxo-1H-pyrrolo[2,3-c]pyridine-3-carboxylate], the IC50 at TAF1-BD2 stood at 38.1 nM; on TAF1-BD1 it was 120 nM.

As to `CCOC(=O)c1c(C)[nH]c2c(=O)n(C)cc(C#CC(C)(O)C3CCOCC3)c12` (stereo not shown) [Example 87, ethyl 4-(3-hydroxy-3-tetrahydropyran-4-yl-but-1-ynyl)-2,6-dimethyl-7-oxo-1H-pyrrolo[2,3-c]pyridine-3-carboxylate], the figures for the IC50 at TAF1-BD2 and on TAF1-BD1 were 181 nM and 770 nM, respectively.

Take `Cc1cc([C@](C)(O)C#Cc2cn(C)c(=O)c3[nH]cc(C(=O)OCC(C)C)c23)no1` [Example 54, isobutyl 4-[(3R)-3-hydroxy-3-(5-methylisoxazol-3-yl)but-1-ynyl]-6-methyl-7-oxo-1H-pyrrolo[2,3-c]pyridine-3-carboxylate]: the IC50 at TAF1-BD2 stood at 122 nM; on TAF1-BD1 it was 179 nM.

Turning to “3-(hydroxymethyl)-4-(3-hydroxy-3-methyl-but-1-ynyl)-2,6-dimethyl-1H-pyrrolo[2,3-c]pyridin-7-one [Example 201]”, the IC50 was determined as 2250 nM at TAF1-BD2 and 6050 nM on TAF1-BD1.

`Cc1cc([C@](C)(O)C#Cc2cn(C)c(=O)c3[nH]c(C)c(-c4nnc(C)o4)c23)no1` [Example 193, 4-[(3R)-3-hydroxy-3-(5-methylisoxazol-3-yl)but-1-ynyl]-2,6-dimethyl-3-(5-methyl-1,3,4-oxadiazol-2-yl)-1H-pyrrolo[2,3-c]pyridin-7-one]: the IC50 on TAF1-BD2 came out at 153 nM; at TAF1-BD1, 517 nM.

On to `Cc1[nH]c2c(=O)n(C)cc(C#CC(O)(c3ccccc3)C(F)(F)F)c2c1-c1nnc(C(C)(C)C)o1` (stereo not shown) [Example 188, 3-(5-tert-butyl-1,3,4-oxadiazol-2-yl)-2,6-dimethyl-4-(4,4,4-trifluoro-3-hydroxy-3-phenyl-but-1-ynyl)-1H-pyrrolo[2,3-c]pyridin-7-one], for which the IC50 on TAF1-BD2 came to 86.2 nM; at TAF1-BD1, 385 nM.

Regarding `CCC(C)(C)OC(=O)c1c(C)[nH]c2c(=O)n(C)cc(C#CC(C)(C)O)c12` [Example 151, 1,1-dimethylpropyl 4-(3-hydroxy-3-methyl-but-1-ynyl)-2,6-dimethyl-7-oxo-1H-pyrrolo[2,3-c]pyridine-3-carboxylate], the IC50 on TAF1-BD2 is 35.1 nM; at TAF1-BD1 it was 221 nM.
